Here are results for 25 compounds from patent publication US10047096B2, “Substituted pyridobenzodiazepinone-derivatives and use thereof” (Bayer Pharma Aktiengesellschaft, priority 2014, dated 2018).

One assay concerns the target human PDGFRβ (Homo sapiens (Human), UniProt P09619). The experiment in a line: PDGFRβ kinase assay (PDGFRβ-HTRF). Type of assay: biochemical. Particulars: 10 μM ATP; some mean values from multiple determinations. Summed up:
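GST-fused human PDGFRβ fragment (R561-L1106) from Sf9 cells was preincubated 15 min with compound in 50 mM HEPES pH 7.5, 10 mM MgCl2, 2.5 mM DTT, 0.01% Triton X-100; substrate was biotinylated poly-Glu,Tyr (4:1).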
Background: Time-resolved FRET reads energy transfer from a long-lived donor to a nearby acceptor.

The target in assay [1] is pPDGFRβ in normal human dermal fibroblasts (NHDF) (Homo sapiens (Human), UniProt P09619). The experiment in a line: Cellular pPDGFRβ inhibition assay. Type of assay: cell-based. The following applies: NHDF stimulated with 50 ng/ml PDGF-BB, 1 h. The protocol:
Thereafter, 50 ng/ml recombinant human PDGF-BB (R&D Systems, Cat. No. 220-BB-050) and a dilution series of the test substances to be examined in DMSO were added to the cells. The total volume per well was 100 μl. After incubation under the abovementioned conditions for one hour, the Opti-MEM® I Reduced Serum Medium was tapped out and discarded. Subsequently, the lysis buffer [Phospho PDGFRβ (Tyr751) Assay Whole Cell Lysate Kit, MSD, Cat. No. K150DVD-2] was made up according to the manufacturer's instructions and 70 μl of this mixture per well were added. The lysed cell samples were either stored at −20° C. or analysed immediately after the lysis in a Meso Scale SECTOR® Imager 2400 according to the abovementioned manufacturer's instructions. The measurement data were presented as percentage PDGFRβ stimulation compared to PDGF-BB-stimulated but substance-untreated cells. The IC50 values were calculated by employing the nonlinear regression (curve fit) function of GraphPad Prism 6 (La Jolla, Calif., USA).

Chain of human PDGFRβ (P09619 561-1106): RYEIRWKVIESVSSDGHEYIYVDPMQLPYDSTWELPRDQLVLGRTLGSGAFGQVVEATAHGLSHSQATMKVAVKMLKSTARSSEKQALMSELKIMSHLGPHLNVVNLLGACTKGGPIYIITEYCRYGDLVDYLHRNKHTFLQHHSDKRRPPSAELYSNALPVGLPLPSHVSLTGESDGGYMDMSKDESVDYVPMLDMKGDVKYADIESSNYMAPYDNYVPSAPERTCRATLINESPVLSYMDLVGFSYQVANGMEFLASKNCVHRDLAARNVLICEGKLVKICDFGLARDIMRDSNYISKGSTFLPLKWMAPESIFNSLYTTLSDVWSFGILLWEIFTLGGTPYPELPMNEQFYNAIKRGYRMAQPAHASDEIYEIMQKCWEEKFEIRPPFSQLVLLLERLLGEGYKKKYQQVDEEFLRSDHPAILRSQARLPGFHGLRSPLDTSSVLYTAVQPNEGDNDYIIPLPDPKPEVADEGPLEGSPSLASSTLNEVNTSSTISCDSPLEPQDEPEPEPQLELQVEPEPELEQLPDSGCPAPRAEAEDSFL
Chain of pPDGFRβ in normal human dermal fibroblasts (NHDF) (P09619 33-1106): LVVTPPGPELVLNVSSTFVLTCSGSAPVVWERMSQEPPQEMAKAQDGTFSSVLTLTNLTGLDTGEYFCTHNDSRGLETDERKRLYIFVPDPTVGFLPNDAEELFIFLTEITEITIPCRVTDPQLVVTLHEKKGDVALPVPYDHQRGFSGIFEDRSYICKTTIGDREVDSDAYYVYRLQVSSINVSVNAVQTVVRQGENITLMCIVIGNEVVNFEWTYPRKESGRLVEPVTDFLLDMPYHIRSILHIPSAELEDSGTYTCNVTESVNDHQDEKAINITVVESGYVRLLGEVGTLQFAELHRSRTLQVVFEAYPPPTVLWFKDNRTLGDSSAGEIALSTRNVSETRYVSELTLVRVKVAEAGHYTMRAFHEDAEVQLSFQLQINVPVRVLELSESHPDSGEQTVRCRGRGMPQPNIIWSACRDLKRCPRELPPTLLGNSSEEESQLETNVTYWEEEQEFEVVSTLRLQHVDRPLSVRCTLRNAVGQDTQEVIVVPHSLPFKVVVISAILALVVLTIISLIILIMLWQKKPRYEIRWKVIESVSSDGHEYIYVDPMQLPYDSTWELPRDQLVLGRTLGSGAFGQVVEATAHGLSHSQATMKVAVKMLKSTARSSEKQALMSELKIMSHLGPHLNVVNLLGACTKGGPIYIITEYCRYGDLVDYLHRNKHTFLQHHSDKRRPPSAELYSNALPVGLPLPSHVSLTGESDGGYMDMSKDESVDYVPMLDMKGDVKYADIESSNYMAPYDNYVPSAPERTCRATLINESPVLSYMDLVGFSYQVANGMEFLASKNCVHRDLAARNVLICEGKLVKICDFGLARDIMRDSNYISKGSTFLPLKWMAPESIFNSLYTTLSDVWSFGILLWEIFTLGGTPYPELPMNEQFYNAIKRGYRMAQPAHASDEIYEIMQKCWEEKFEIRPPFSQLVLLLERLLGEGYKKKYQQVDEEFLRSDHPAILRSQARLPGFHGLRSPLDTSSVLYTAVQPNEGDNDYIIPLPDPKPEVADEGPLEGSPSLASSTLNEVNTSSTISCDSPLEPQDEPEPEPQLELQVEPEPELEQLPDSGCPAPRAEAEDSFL

In general, IC50 refers to the concentration at which inhibition is half-maximal. A lower IC50 goes with greater potency in that assay. Take `Cc1cc(F)c(Nc2ccnc3c2C(=O)Nc2cc(CN(C)C[C@H](C)O)ccc2N3)cc1O` [Example 202, 4-[(2-Fluoro-5-hydroxy-4-methylphenyl)amino]-8-({[(2S)-2-hydroxypropyl](methyl)amino}methyl)-6,11-dihydro-5H-pyrido[2,3-b][1,5]benzodiazepin-5-one]: the IC50 is 1.55 nM against human PDGFRβ and 39.1 nM in assay [1].

As for `Cc1cc(F)c(Nc2ccnc3c2C(=O)Nc2cc(CNC(CO)C(C)C)ccc2N3)cc1O` (racemic) [Example 75, rac-4-[(2-Fluoro-5-hydroxy-4-methylphenyl)amino]-8-{[(1-hydroxy-3-methylbutan-2-yl)amino]methyl}-6,11-dihydro-5H-pyrido[2,3-b][1,5]benzodiazepin-5-one], the half-inhibitory concentration (IC50) on human PDGFRβ is 0.826 nM; in assay [1], 43.9 nM.

For the compound `CCN(Cc1ccc2c(c1)NC(=O)c1c(Nc3cc(O)c(C)cc3F)ccnc1N2)C(C)C` [Example 51, 8-{[Ethyl(isopropyl)amino]methyl}-4-[(2-fluoro-5-hydroxy-4-methylphenyl)amino]-6,11-dihydro-5H-pyrido[2,3-b][1,5]benzodiazepin-5-one], the IC50 was determined as 1.15 nM at human PDGFRβ and 22.1 nM in assay [1].

In the case of `CCOCCN(CC)Cc1ccc2c(c1)NC(=O)c1c(Nc3cc(O)c(C)cc3F)ccnc1N2` [Example 50, 8-{[(2-Ethoxyethyl) (ethyl)amino]methyl}-4-[(2-fluoro-5-hydroxy-4-methylphenyl)amino]-6,11-dihydro-5H-pyrido[2,3-b][1,5]benzodiazepin-5-one], the figures for the IC50 (against human PDGFRβ; in assay [1]) were 1.13 nM and 97.4 nM, respectively.

For the compound `Cc1cc(F)c(Nc2ccnc3c2C(=O)Nc2cc(CN4CCOCC4)ccc2N3)cc1O` [Example 29, 4-[(2-Fluoro-5-hydroxy-4-methylphenyl)amino]-8-(morpholin-4-ylmethyl)-6,11-dihydro-5H-pyrido[2,3-b][1,5]benzodiazepin-5-one], the IC50 came to 2.89 nM at human PDGFRβ and 35.3 nM in assay [1].

`Cc1cc(F)c(Nc2ccnc3c2C(=O)Nc2cc(CNC(CO)CO)ccc2N3)cc1O` [Example 78, 8-{[(1,3-Dihydroxypropan-2-yl)amino]methyl}-4-[(2-fluoro-5-hydroxy-4-methylphenyl)amino]-6,11-dihydro-5H-pyrido[2,3-b][1,5]benzodiazepin-5-one]: the IC50 stood at 0.974 nM at human PDGFRβ and 32.6 nM in assay [1].

`CCNCc1ccc2c(c1)NC(=O)c1c(Nc3cc(O)c(C)cc3F)ccnc1N2` [Example 31, 8-[(Ethylamino)methyl]-4-[(2-fluoro-5-hydroxy-4-methylphenyl)amino]-6,11-dihydro-5H-pyrido[2,3-b][1,5]benzodiazepin-5-one]: the IC50 against human PDGFRβ stood at 1.22 nM; in assay [1], 33.3 nM.

For `Cc1cc(F)c(Nc2ccnc3c2C(=O)Nc2cc(CN(C)CCN)ccc2N3)cc1O` [Example 209, 8-{[(2-Aminoethyl)(methyl)amino]methyl}-4-[(2-fluoro-5-hydroxy-4-methylphenyl)amino]-6,11-dihydro-5H-pyrido[2,3-b][1,5]benzodiazepin-5-one], the IC50 against human PDGFRβ came to 0.739 nM; in assay [1], 215 nM.

For `CCN(CC)Cc1ccc2c(c1)NC(=O)c1c(Nc3cc(O)c(C)cc3F)ccnc1N2` [Example 28, 8-[(Diethylamino)methyl]-4-[(2-fluoro-5-hydroxy-4-methylphenyl)amino]-6,11-dihydro-5H-pyrido[2,3-b][1,5]benzodiazepin-5-one], the IC50 is 0.953 nM on human PDGFRβ and 21.6 nM in assay [1].

For `Cc1cc(F)c(Nc2ccnc3c2C(=O)Nc2cc(CN(C)CCO)ccc2N3)cc1O` [Example 198, 4-[(2-Fluoro-5-hydroxy-4-methylphenyl)amino]-8-{[(2-hydroxyethyl)(methyl)amino]methyl}-6,11-dihydro-5H-pyrido[2,3-b][1,5]benzodiazepin-5-one], the IC50 came out at 0.962 nM against human PDGFRβ and 49.8 nM in assay [1].

With `CCN(CCO)C(=O)c1ccc2c(c1)NC(=O)c1c(Nc3cc(O)c(C)cc3F)ccnc1N2` [Example 162, N-Ethyl-4-[(2-fluoro-5-hydroxy-4-methylphenyl)amino]-N-(2-hydroxyethyl)-5-oxo-6,11-dihydro-5H-pyrido[2,3-b][1,5]benzodiazepine-8-carboxamide], the IC50 at human PDGFRβ is 12.1 nM; in assay [1], 890 nM.

As for `Cc1cc(F)c(Nc2ccnc3c2C(=O)Nc2cc(CN4CCN(CC(F)F)CC4)ccc2N3)cc1O` [Example 227, 8-{[4-(2,2-Difluoroethyl)piperazin-1-yl]methyl}-4-[(2-fluoro-5-hydroxy-4-methylphenyl)amino]-6,11-dihydro-5H-pyrido[2,3-b][1,5]benzodiazepin-5-one], the IC50 against human PDGFRβ was determined as 6.38 nM; in assay [1], 554 nM.

On to `Cc1ccc(O)cc1Nc1ccnc2c1C(=O)Nc1cc(CN3CCC(O)CC3)ccc1N2` [Example 42, 4-[(5-Hydroxy-2-methylphenyl)amino]-8-[(4-hydroxypiperidin-1-yl)methyl]-6,11-dihydro-5H-pyrido[2,3-b][1,5]benzodiazepin-5-one], for which the IC50 against human PDGFRβ is 2.44 nM; in assay [1] it was 140 nM.

As to `CCN(CCOC)Cc1ccc2c(c1)NC(=O)c1c(Nc3cc(O)c(C)cc3F)ccnc1N2` [Example 55, 8-{[Ethyl(2-methoxyethyl)amino]methyl}-4-[(2-fluoro-5-hydroxy-4-methylphenyl)amino]-6,11-dihydro-5H-pyrido[2,3-b][1,5]benzodiazepin-5-one], the IC50 is 0.905 nM on human PDGFRβ and 60.7 nM in assay [1].

Regarding `Cc1ccc(O)cc1Nc1ccnc2c1C(=O)Nc1cc(CNC(C)C)ccc1N2` [Example 19, 4-[(5-Hydroxy-2-methylphenyl)amino]-8-[(isopropylamino)methyl]-6,11-dihydro-5H-pyrido[2,3-b][1,5]benzodiazepin-5-one], the IC50 against human PDGFRβ was determined as 2.02 nM; in assay [1], 40.9 nM.

`Cc1cc(F)c(Nc2ccnc3c2C(=O)Nc2cc(CN4CCCC4)ccc2N3)cc1O` [Example 32, 4-[(2-Fluoro-5-hydroxy-4-methylphenyl)amino]-8-(pyrrolidin-1-ylmethyl)-6,11-dihydro-5H-pyrido[2,3-b][1,5]benzodiazepin-5-one]: the results for the 50% inhibitory concentration (IC50) (at human PDGFRβ; in assay [1]) were 3.25 nM and 22.8 nM, respectively.

As for `Cc1cc(F)c(Nc2ccnc3c2C(=O)Nc2cc(CN4C[C@H](O)C[C@H]4CO)ccc2N3)cc1O` [Example 64, 4-[(2-Fluoro-5-hydroxy-4-methylphenyl)amino]-8-{[(2S,4R)-4-hydroxy-2-(hydroxymethyl)pyrrolidin-1-yl]methyl}-6,11-dihydro-5H-pyrido[2,3-b][1,5]benzodiazepin-5-one], the IC50 at human PDGFRβ amounted to 0.68 nM; in assay [1], 14.3 nM.

Turning to `Cc1cc(F)c(Nc2ccnc3c2C(=O)Nc2cc(CN[C@H]4CC[C@H](O)CC4)ccc2N3)cc1O` [Example 76, 4-[(2-Fluoro-5-hydroxy-4-methylphenyl)amino]-8-{[(trans-4-hydroxycyclohexyl)amino]methyl}-6,11-dihydro-5H-pyrido[2,3-b][1,5]benzodiazepin-5-one], the IC50 amounted to 1.58 nM on human PDGFRβ and 11.3 nM in assay [1].

Regarding `Cc1cc(F)c(Nc2ccnc3c2C(=O)Nc2cc(CNC4CC4)ccc2N3)cc1O` [Example 30, 8-[(Cyclopropylamino)methyl]-4-[(2-fluoro-5-hydroxy-4-methylphenyl)amino]-6,11-dihydro-5H-pyrido[2,3-b][1,5]benzodiazepin-5-one], the IC50 was 2.17 nM against human PDGFRβ and 111 nM in assay [1].

For the compound `Cc1ccc(O)cc1Nc1ccnc2c1C(=O)Nc1cc(CNCC(N)=O)ccc1N2` [Example 16, N^2-({4-[(5-Hydroxy-2-methylphenyl)amino]-5-oxo-6,11-dihydro-5H-pyrido[2,3-b][1,5]benzodiazepin-8-yl}methyl)glycinamide], on human PDGFRβ, the half-inhibitory concentration (IC50) was found to be 7.05 nM.

Compound `Cc1ccc(O)cc1Nc1ccnc2c1C(=O)Nc1cc(CNCCN3CCCCCC3)ccc1N2` [Example 111] gave an IC50 against human PDGFRβ of 4.03 nM.

In turn, `Cc1cc(F)c(Nc2ccnc3c2C(=O)Nc2cc(CN(C)C[C@@H](C)O)ccc2N3)cc1O` [Example 201, 4-[(2-Fluoro-5-hydroxy-4-methylphenyl)amino]-8-({[(2R)-2-hydroxypropyl](methyl)amino}methyl)-6,11-dihydro-5H-pyrido[2,3-b][1,5]benzodiazepin-5-one] registered an IC50 against human PDGFRβ of 1.35 nM.

Regarding `CCN1CCCC1CNCc1ccc2c(c1)NC(=O)c1c(Nc3cc(O)ccc3C)ccnc1N2` (centres unmarked) [Example 92, 8-({[(1-Ethylpyrrolidin-2-yl)methyl]amino}methyl)-4-[(5-hydroxy-2-methylphenyl)amino]-6,11-dihydro-5H-pyrido[2,3-b][1,5]benzodiazepin-5-one], the IC50 at human PDGFRβ came to 5.27 nM.

At human PDGFRβ, `Cc1cc(F)c(Nc2ccnc3c2C(=O)Nc2cc(CN4CC[C@H](N)C4)ccc2N3)cc1O` [Example 215, 8-{[(3S)-3-Aminopyrrolidin-1-yl]methyl}-4-[(2-fluoro-5-hydroxy-4-methylphenyl)amino]-6,11-dihydro-5H-pyrido[2,3-b][1,5]benzodiazepin-5-one] showed an IC50 of 2.06 nM.

Compound `Cc1cc(F)c(Nc2ccnc3c2C(=O)Nc2cc(CN4CCC[C@H](N)C4)ccc2N3)cc1O` [Example 219, 8-{[(3S)-3-Aminopiperidin-1-yl]methyl}-4-[(2-fluoro-5-hydroxy-4-methylphenyl)amino]-6,11-dihydro-5H-pyrido[2,3-b][1,5]benzodiazepin-5-one] gave an IC50 against human PDGFRβ of 1.48 nM.
